pEC50: −log10 of the molar value.
biological target: Lutropin-choriogonadotropic hormone receptor (Homo sapiens, UniProt P22888); assay: Agonist activity at LHCGR (unknown origin); conditions: not given
Sequence (P22888 whole entry): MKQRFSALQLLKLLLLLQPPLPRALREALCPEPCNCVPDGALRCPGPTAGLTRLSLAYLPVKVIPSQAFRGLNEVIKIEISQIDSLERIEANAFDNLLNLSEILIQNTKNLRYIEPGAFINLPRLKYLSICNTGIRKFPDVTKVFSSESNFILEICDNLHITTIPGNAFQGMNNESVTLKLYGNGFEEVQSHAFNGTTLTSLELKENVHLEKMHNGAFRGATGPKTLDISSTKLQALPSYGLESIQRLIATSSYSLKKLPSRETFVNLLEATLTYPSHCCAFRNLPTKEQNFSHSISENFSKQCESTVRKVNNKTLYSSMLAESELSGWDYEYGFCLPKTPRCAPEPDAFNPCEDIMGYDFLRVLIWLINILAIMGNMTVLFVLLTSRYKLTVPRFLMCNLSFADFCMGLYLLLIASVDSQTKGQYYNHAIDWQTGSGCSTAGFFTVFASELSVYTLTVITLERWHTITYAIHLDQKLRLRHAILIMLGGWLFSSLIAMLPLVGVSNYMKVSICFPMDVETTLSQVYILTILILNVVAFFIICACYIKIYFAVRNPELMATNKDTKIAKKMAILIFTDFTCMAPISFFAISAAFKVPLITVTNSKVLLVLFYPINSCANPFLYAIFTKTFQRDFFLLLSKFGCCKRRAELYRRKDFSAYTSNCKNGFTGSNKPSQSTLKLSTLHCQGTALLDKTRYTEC

| pEC50 | SMILES |
| --- | --- |
| 6.66 | COc1cccc(-c2nc(SC)nc3sc(C(=O)NC(C)(C)C)c(N)c23)c1 |

biological target: T1, Thyrotropin receptor (Homo sapiens, UniProt P16473); assay: Agonist activity at TSHR (unknown origin); conditions: not given
T1 sequence (P16473 whole entry): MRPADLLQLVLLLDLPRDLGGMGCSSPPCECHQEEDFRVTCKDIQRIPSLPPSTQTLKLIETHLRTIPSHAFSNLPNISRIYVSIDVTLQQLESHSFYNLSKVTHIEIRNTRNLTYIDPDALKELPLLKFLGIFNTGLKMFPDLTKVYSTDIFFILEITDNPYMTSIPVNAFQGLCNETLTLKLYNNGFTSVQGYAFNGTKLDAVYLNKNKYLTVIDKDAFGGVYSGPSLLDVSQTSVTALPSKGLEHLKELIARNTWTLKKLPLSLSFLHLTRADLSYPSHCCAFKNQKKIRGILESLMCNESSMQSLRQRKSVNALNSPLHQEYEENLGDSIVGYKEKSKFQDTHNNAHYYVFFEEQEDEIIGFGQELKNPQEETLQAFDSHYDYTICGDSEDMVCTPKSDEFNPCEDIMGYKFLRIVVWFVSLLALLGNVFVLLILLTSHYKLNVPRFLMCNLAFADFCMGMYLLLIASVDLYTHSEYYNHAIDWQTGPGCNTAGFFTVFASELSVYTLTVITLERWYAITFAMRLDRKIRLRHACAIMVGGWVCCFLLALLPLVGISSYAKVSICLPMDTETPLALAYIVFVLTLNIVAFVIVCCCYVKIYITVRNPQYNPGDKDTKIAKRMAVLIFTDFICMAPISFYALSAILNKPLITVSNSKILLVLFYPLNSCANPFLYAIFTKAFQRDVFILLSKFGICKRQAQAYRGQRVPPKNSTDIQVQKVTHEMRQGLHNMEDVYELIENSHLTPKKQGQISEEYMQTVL

| pEC50 | SMILES |
| --- | --- |
| 5.11 | COc1cccc(-c2nc(SC)nc3sc(C(=O)NC(C)(C)C)c(N)c23)c1 |

biological target: T1, Thyrotropin receptor; assay: Agonist activity at TSHR (unknown origin) transiently transfected HEK-EM293 cells assessed as cAMP level after 1 hr by ELISA; format: functional, cell-based; conditions: not given

| pEC50 | SMILES |
| --- | --- |
| 6.08 | CCCCN1C(=O)c2ccccc2NC1c1ccc(OC)c(COc2ccc(NC(C)=O)cc2)c1 (configuration not stated) |
| 5.94 | COc1ccc(C2Nc3ccccc3C(=O)N2Cc2ccco2)cc1COc1ccc(NC(C)=O)cc1 (configuration not stated) |
| 6.02 | COc1ccc(-c2nc3ccccc3c(=O)n2Cc2ccccc2)cc1COc1ccc(NC(C)=O)cc1 |
| 6.03 | COc1ccc(-c2nc3ccccc3c(=O)n2Cc2ccco2)cc1COc1ccc(NC(C)=O)cc1 |
| 5.35 | COc1ccc(C2Nc3cccc(OC)c3C(=O)N2Cc2ccccc2)cc1COc1ccc(NC(C)=O)cc1 (configuration not stated) |
| 7.05 | COc1ccc(C2Nc3cccc(O)c3C(=O)N2Cc2ccccc2)cc1COc1ccc(NC(C)=O)cc1 (configuration not stated) |
| 5.67 | COc1ccc(OCc2cc(C3Nc4ccccc4C(=O)N3Cc3ccccc3)ccc2OC)cc1 (configuration not stated) |
| 5.40 | COc1ccc(C2Nc3ccccc3C(=O)N2Cc2ccncc2)cc1COc1ccc(NC(C)=O)cc1 (configuration not stated) |
| 6.37 | COc1ccc(C2Nc3ccccc3C(=O)N2CCc2ccccc2)cc1COc1ccc(NC(C)=O)cc1 (configuration not stated) |
| 5.29 | COc1ccc(C2Nc3ccccc3C(=O)N2c2ccccc2)cc1COc1ccc(NC(C)=O)cc1 (configuration not stated) |
| 6.48 | COc1ccc(C2Nc3ccc(O)cc3C(=O)N2Cc2ccccc2)cc1COc1ccc(NC(C)=O)cc1 (configuration not stated) |
| 5.36 | COc1ccc(C2Nc3ccccc3C(=O)N2Cc2ccccc2)cc1COc1cccc(NC(C)=O)c1 (configuration not stated) |
| 6.55 | COc1ccc(C2Nc3cccc(F)c3C(=O)N2Cc2ccccc2)cc1COc1ccc(NC(C)=O)cc1 (configuration not stated) |
| 7.74 | COc1ccc(C2Nc3cccc(O)c3C(=O)N2Cc2ccccc2)cc1CSc1ccc(NC(C)=O)cc1 (configuration not stated) |
| 6.26 | COc1ccc(-c2nc3cccc(O)c3c(=O)n2Cc2ccccc2)cc1COc1ccc(NC(C)=O)cc1 |
| 7.10 | COc1ccc(C2Nc3ccccc3C(=O)N2Cc2ccccc2)cc1CSc1ccc(NC(C)=O)cc1 (configuration not stated) |
| 5.73 | CC(=O)Nc1ccc(OCc2cccc(C3Nc4ccccc4C(=O)N3Cc3ccccc3)c2)cc1 (configuration not stated) |
| 5.59 | COc1ccc(C2Nc3ccccc3C(=O)N2Cc2ccccc2)cc1COc1ccccc1 (configuration not stated) |

| SMILES | pEC50 |
| --- | --- |
| COc1ccc(C2Nc3ccccc3C(=O)N2Cc2ccccc2)cc1COc1ccc(NC(C)=O)cc1 (configuration not stated) | 6.54 |

tested on: not listed separately; assay: Half life in acidic aqueous conditions at pH 2; format: physicochemical; conditions: acidic aqueous solution

| half-life | SMILES |
| --- | --- |
| 3 h | COc1ccc(C2Nc3cccc(O)c3C(=O)N2Cc2ccccc2)cc1COc1ccc(NC(C)=O)cc1 (configuration not stated) |
